Data from ChEMBL document CHEMBL1201862, “PubChem BioAssay data set” (2004).
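Results reflect a 48-hour exposure of cells in 96-well plates to compound at five concentrations. GI50: concentration for 50% inhibition of growth.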 Activity calls are given as the source filed them. Rule as the data show it: active = GI50 up to about 1.1 µM and inactive = higher.

How the values were obtained:
Test in all cases: NCI tumour cell line growth inhibition, 48 h
KM12 = system: KM12
RPMI-8226 = system: RPMI-8226
NCI-H460 = system: NCI-H460
MCF7 = system: MCF7
EKVX = system: EKVX
IGROV-1 = system: IGROV-1
786-0 = system: 786-0
SK-MEL-2 = system: SK-MEL-2
U-251 = system: U-251
RXF 393 = system: RXF 393
OVCAR-8 = system: OVCAR-8
HCC 2998 = system: HCC 2998
ACHN = system: ACHN
OVCAR-4 = system: OVCAR-4
SF-295 = system: SF-295
HOP-62 = system: HOP-62
MDA-N = system: MDA-N
SK-OV-3 = system: SK-OV-3
M14 = system: M14
NCI/ADR-RES = system: NCI/ADR-RES
SF-268 = system: SF-268
OVCAR-3 = system: OVCAR-3
HCT-116 = system: HCT-116
SR = system: SR
COLO 205 = system: COLO 205
UACC-62 = system: UACC-62
SK-MEL-5 = system: SK-MEL-5
NCI-H522 = system: NCI-H522
A498 = system: A498
HL-60 = system: HL-60
BT-549 = system: BT-549
DU-145 = system: DU-145
SK-MEL-28 = system: SK-MEL-28
Hs-578T = system: Hs-578T
T47D = system: T47D
TK-10 = system: TK-10
SNB-19 = system: SNB-19
SW-620 = system: SW-620
K562 = system: K562
NCI-H23 = system: NCI-H23
Malme-3M = system: Malme-3M
A549 = system: A549
SF-539 = system: SF-539
CCRF-CEM = system: CCRF-CEM
MOLT-4 = system: MOLT-4
LOX IMVI = system: LOX IMVI
UO-31 = system: UO-31
NCI-H226 = system: NCI-H226
UACC-257 = system: UACC-257
SN12C = system: SN12C
CAKI-1 = system: CAKI-1
HOP-92 = system: HOP-92
HCT-15 = system: HCT-15
MDA-MB-231 = system: MDA-MB-231
PC-3 = system: PC-3
HT-29 = system: HT-29
OVCAR-5 = system: OVCAR-5
MDA-MB-435 = system: MDA-MB-435
SNB-75 = system: SNB-75

Cc1ccnc2c1C(=O)C1=C(OC(C)(C)CC1O)C2=O (stereo not given)
GI50 (KM12): 3.27 µM (inactive)
GI50 (RPMI-8226): 4.06 µM (inactive)
GI50 (NCI-H460): 2.9 µM (inactive)
GI50 (MCF7): 2.56 µM (inactive)
GI50 (EKVX): 5.21 µM (inactive)
GI50 (IGROV-1): 3.03 µM (inactive)
GI50 (786-0): 4.08 µM (inactive)
GI50 (SK-MEL-2): 2.88 µM (inactive)
GI50 (U-251): 3.34 µM (inactive)
GI50 (RXF 393): 10.7 µM (inactive)
GI50 (OVCAR-8): 2.83 µM (inactive)
GI50 (HCC 2998): 3.88 µM (inactive)
GI50 (ACHN): 5.82 µM (inactive)
GI50 (OVCAR-4): 3.01 µM (inactive)
GI50 (SF-295): 3.81 µM (inactive)
GI50 (HOP-62): 3.37 µM (inactive)
GI50 (MDA-N): 1.45 µM (inactive)
GI50 (SK-OV-3): 13.7 µM (inactive)
GI50 (M14): 2.62 µM (inactive)
GI50 (NCI/ADR-RES): 2.78 µM (inactive)
GI50 (SF-268): 1.79 µM (inactive)
GI50 (OVCAR-3): 2.67 µM (inactive)
GI50 (HCT-116): 2.82 µM (inactive)
GI50 (SR): 2.03 µM (inactive)
GI50 (COLO 205): 2.41 µM (inactive)
GI50 (UACC-62): 1.71 µM (inactive)
GI50 (SK-MEL-5): 1.17 µM (inactive)
GI50 (NCI-H522): 2.9 µM (inactive)
GI50 (A498): 15.3 µM (inactive)
GI50 (HL-60): 2.41 µM (inactive)
GI50 (BT-549): 3.36 µM (inactive)
GI50 (DU-145): 6.4 µM (inactive)
GI50 (SK-MEL-28): 2.05 µM (inactive)
GI50 (Hs-578T): 2.81 µM (inactive)
GI50 (T47D): 4.89 µM (inactive)
GI50 (TK-10): 12 µM (inactive)
GI50 (SNB-19): 7.38 µM (inactive)
GI50 (SW-620): 2.87 µM (inactive)
GI50 (K562): 2.99 µM (inactive)
GI50 (NCI-H23): 1.76 µM (inactive)
GI50 (Malme-3M): 1.27 µM (inactive)
GI50 (A549): 8.77 µM (inactive)
GI50 (SF-539): 3.41 µM (inactive)
GI50 (CCRF-CEM): 2.97 µM (inactive)
GI50 (MOLT-4): 3.9 µM (inactive)
GI50 (LOX IMVI): 2.56 µM (inactive)
GI50 (UO-31): 2.2 µM (inactive)
GI50 (NCI-H226): 6.08 µM (inactive)
GI50 (UACC-257): 1.74 µM (inactive)
GI50 (SN12C): 3.21 µM (inactive)
GI50 (CAKI-1): 6.01 µM (inactive)
GI50 (HOP-92): 10.1 µM (inactive)
GI50 (HCT-15): 2.38 µM
GI50 (MDA-MB-231): 2.97 µM (inactive)
GI50 (PC-3): 2.91 µM (inactive)
GI50 (HT-29): 3.08 µM (inactive)
GI50 (OVCAR-5): 8.26 µM (inactive)
GI50 (MDA-MB-435): 1.32 µM (inactive)

COc1ccc(C(=O)C2CC3(CCC2(O)c2ccc(OC)cc2)CC(=O)Nc2ccccc2C3=O)cc1 (stereo not given)
GI50 (NCI-H460): 6.75 µM (inactive)
GI50 (MCF7): 3.03 µM (inactive)
GI50 (EKVX): > 100 µM (inactive)
GI50 (IGROV-1): > 100 µM (inactive)
GI50 (SK-MEL-2): > 100 µM (inactive)
GI50 (U-251): 63.7 µM (inactive)
GI50 (RXF 393): > 100 µM (inactive)
GI50 (OVCAR-8): > 100 µM (inactive)
GI50 (HCC 2998): 79.3 µM (inactive)
GI50 (OVCAR-4): 1.55 µM (inactive)
GI50 (SF-295): > 100 µM (inactive)
GI50 (HOP-62): > 100 µM (inactive)
GI50 (MDA-N): > 100 µM (inactive)
GI50 (SK-OV-3): > 100 µM (inactive)
GI50 (M14): > 100 µM (inactive)
GI50 (NCI/ADR-RES): > 100 µM (inactive)
GI50 (SF-268): > 100 µM (inactive)
GI50 (OVCAR-3): > 100 µM (inactive)
GI50 (HCT-116): 28.4 µM (inactive)
GI50 (SR): > 100 µM (inactive)
GI50 (COLO 205): 11.7 µM (inactive)
GI50 (UACC-62): > 100 µM (inactive)
GI50 (SK-MEL-5): 4.98 µM (inactive)
GI50 (A498): > 100 µM (inactive)
GI50 (HL-60): 5.08 µM (inactive)
GI50 (BT-549): > 100 µM (inactive)
GI50 (SNB-75): 4.4 µM (inactive)
GI50 (DU-145): > 100 µM (inactive)
GI50 (Hs-578T): > 100 µM (inactive)
GI50 (T47D): 0.366 µM (active)
GI50 (TK-10): > 100 µM (inactive)
GI50 (SW-620): > 100 µM (inactive)
GI50 (K562): > 100 µM (inactive)
GI50 (NCI-H23): > 100 µM (inactive)
GI50 (Malme-3M): > 100 µM (inactive)
GI50 (A549): > 100 µM (inactive)
GI50 (SF-539): > 100 µM (inactive)
GI50 (CCRF-CEM): 4.38 µM (inactive)
GI50 (LOX IMVI): > 100 µM (inactive)
GI50 (UO-31): 18.1 µM (inactive)
GI50 (NCI-H226): > 100 µM (inactive)
GI50 (UACC-257): > 100 µM (inactive)
GI50 (SN12C): > 100 µM (inactive)
GI50 (CAKI-1): > 100 µM (inactive)
GI50 (HOP-92): 0.5 µM (active)
GI50 (HCT-15): 5.85 µM
GI50 (MDA-MB-231): > 100 µM (inactive)
GI50 (PC-3): 1.44 µM (inactive)
GI50 (HT-29): > 100 µM (inactive)
GI50 (OVCAR-5): > 100 µM (inactive)
GI50 (MDA-MB-435): > 100 µM (inactive)

Cc1ccc2nc(-c3nccn3C)cc(C(=O)NC(C)CN(C)C)c2c1 (stereo not given)
GI50 (KM12): > 100 µM (inactive)
GI50 (NCI-H460): 24.9 µM (inactive)
GI50 (MCF7): 63 µM (inactive)
GI50 (EKVX): > 100 µM (inactive)
GI50 (IGROV-1): > 100 µM (inactive)
GI50 (786-0): > 100 µM (inactive)
GI50 (SK-MEL-2): > 100 µM (inactive)
GI50 (U-251): > 100 µM (inactive)
GI50 (RXF 393): > 100 µM (inactive)
GI50 (OVCAR-8): > 100 µM (inactive)
GI50 (HCC 2998): > 10 µM (inactive)
GI50 (ACHN): 60 µM (inactive)
GI50 (HOP-62): 34.9 µM (inactive)
GI50 (MDA-N): > 100 µM (inactive)
GI50 (M14): > 100 µM (inactive)
GI50 (NCI/ADR-RES): > 100 µM (inactive)
GI50 (SF-268): > 100 µM (inactive)
GI50 (HCT-116): > 100 µM (inactive)
GI50 (SR): 0.711 µM (active)
GI50 (COLO 205): > 100 µM (inactive)
GI50 (UACC-62): > 100 µM (inactive)
GI50 (SK-MEL-5): 97.9 µM (inactive)
GI50 (A498): > 100 µM (inactive)
GI50 (HL-60): 10.1 µM (inactive)
GI50 (BT-549): > 100 µM (inactive)
GI50 (SNB-75): > 100 µM (inactive)
GI50 (DU-145): > 100 µM (inactive)
GI50 (SK-MEL-28): > 100 µM (inactive)
GI50 (Hs-578T): > 100 µM (inactive)
GI50 (T47D): > 100 µM (inactive)
GI50 (TK-10): > 100 µM (inactive)
GI50 (SNB-19): > 100 µM (inactive)
GI50 (SW-620): > 100 µM (inactive)
GI50 (NCI-H23): > 100 µM (inactive)
GI50 (Malme-3M): > 100 µM (inactive)
GI50 (A549): 89.9 µM (inactive)
GI50 (SF-539): 26.1 µM (inactive)
GI50 (MOLT-4): > 10 µM (inactive)
GI50 (LOX IMVI): 91.2 µM (inactive)
GI50 (UO-31): 92.7 µM (inactive)
GI50 (NCI-H226): 98.6 µM (inactive)
GI50 (UACC-257): > 100 µM (inactive)
GI50 (SN12C): > 100 µM (inactive)
GI50 (CAKI-1): > 100 µM (inactive)
GI50 (HOP-92): 46.3 µM (inactive)
GI50 (HCT-15): 55.1 µM
GI50 (MDA-MB-231): > 100 µM (inactive)
GI50 (PC-3): 25.3 µM (inactive)
GI50 (HT-29): 72.6 µM (inactive)
GI50 (OVCAR-5): > 100 µM (inactive)
GI50 (MDA-MB-435): > 100 µM (inactive)
